From patent US20260199371A1, “COORDINATION COMPOUND, COMPOSITIONS, AND USES THEREOF FOR TREATING CANCERS” (HUEIYUAN BIOTECH LLC, priority 2023, published 2026)

Assays:
[1] = test system: LoVo-OXAR cells tumor xenograft
Method: (§1) Six-week-old male NU/NU mice were purchased from Bio LASCO Taiwan Co., Ltd (Taipei, Taiwan) and randomly assigned into four groups (Groups 1 to 4), each containing three mice. […] Tumor volume and mice body weight were measured every three days. […] All mice were sacrificed on day 21, and the tumors were excised and weighed.
(§2) Moreover, the LoVo-parental and LoVo-OXAR tumor tissues were collected and subject to TUNEL assay.

[2] = test system: LoVo-parental cells tumor xenograft
Method: as §1, §2

[3] = test system: HA22T-parental cells; conditions: 24 hours
[4] = test system: HeLa cells; conditions: 0.5-1000 μg/ml, 48 hours
Method: Human cervical carcinoma HeLa cells (commercially available from ATCC under the number CCL-2) were cultured in DMEM supplemented with 10% FBS.

[5] = test system: TT cells; conditions: 0.1-1000 μg/ml, 72 hours
Method: Human medullary thyroid carcinoma TT cells (commercially available from ATCC under the number CRL-1803) were cultured in F12K medium (Gibco™, Thermo Fisher Scientific, Waltham, MA, USA) supplemented with 10% FBS.

Compound: CC(=O)[O-].CC(=O)[O-].CC(=O)[O-].CC(=O)[O-].CC(=O)[O-].CC(=O)[O-].O.O.O.O.O=[N+]([O-])[O-].[Cr+3].[Fe+3].[Fe+3].[OH-].[OH-] [compound (II)]
- apoptosis in tumors (TUNEL) ([1]; LoVo-OXAR tumors): induced significantly higher apoptosis
- health of mice after treatment ([1]; LoVo-OXAR xenograft, 100 mg/kg orally every three days): healthy
- tumor growth ([1]; LoVo-OXAR xenograft, 100 mg/kg orally every three days, about three weeks): significantly reduced the tumor growth
- body weight of the mice ([1]; LoVo-OXAR xenograft, day 1 to day 21, loss attributed to the tumor): body weight loss
- apoptosis in tumors (TUNEL) ([2]; LoVo-parental tumors): induced significantly higher apoptosis
- health of mice after treatment ([2]; LoVo-parental xenograft, 100 mg/kg orally every three days): healthy
- tumor growth ([2]; LoVo-parental xenograft, 100 mg/kg orally every three days, about three weeks): significantly reduced the tumor growth
- body weight of the mice ([2]; LoVo-parental xenograft, day 1 to day 21): remained constant
- viability of HA22T-parental cells ([3]; 0-1250 μg/ml): reduced the viability of both liver cancer cells in a dose-dependent manner
- IC50 against HA22T-parental cells ([3]; MTT): approximately 1000 μg/ml
- viability of HeLa cells [4]: reduced the viability of the metastatic Hela cells in a dose-dependent manner
- viability of TT cells [5]: reduced the viability of the TT cells in a dose-dependent manner
